As usually defined, the IC50 is the concentration needed to halve the response being measured.

pIC50: −log10 of the molar value.

The target in one assay is T1, Recombinant human Plk-1 (Homo sapiens, UniProt P53350).
T1 construct: 6xHis; made in house; host or cells: baculovirus-infected Hi5 insect cells
The experiment in a line: PLK Enzyme Assay. In kind it is biochemical. The settings on record: biotinylated casein and 33P-γ-ATP as substrate, 90 minutes at room temperature, read-out: PLK-1 IC50 [nM] Inhibition. The method, then:
Recombinant human Plk-1 (6× His) was purified from baculovirus-infected insect cells (Hi5).
10 ng of (produced in a recombinant manner and purified) PLK enzyme is incubated for 90 minutes at room temperature with biotinylated casein and 33P-γ-ATP as a substrate in a volume of 15 μl in 384-well Greiner small-volume microtiter plates (final concentrations in the buffer: 660 ng/ml of PLK; 0.7 lmol of casein, 0.5 gmol of ATP incl. 400 nCi/ml of 33P-γ-ATP; 10 mmol of MgCl2, 1 mmol of MnCl2; 0.01% NP40; 1 mmol of DTT, protease inhibitors; 0.1 mmol of Na2VO3 in 50 mmol of HEPES, pH 7.5). To complete the reaction, 5 μl of stop solution (500 μmol of ATP; 500 mmol of EDTA; 1% Triton X100; 100 mg/ml of streptavidin-coated SPA beads in PBS) is added. After the microtiter plate is sealed by film, the beads are sedimented by centrifuging (10 minutes, 1500 rpm). The incorporation of 33P-γ-ATP in casein is intended as a measurement of enzyme activity by β-counting.
Test substances are used in various concentrations (0 μmol, as well as in the range of 0.01-30 μmol). The final concentration of the solvent dimethyl sulfoxide is 1.5% in all batches.

The subject of assay [1] is human MaTu breast tumor cells. Put plainly: Proliferation Assay. The class given is cell-based. The settings on record: 96 h, incubated 4 days, crystal violet, read-out: Inhibition of the Tumor Cell Proliferation (MaTu) IC50. The method, then: Cultivated human MaTu breast tumor cells were flattened out at a density of 5000 cells/measuring point in a 96-well multititer plate in 200 μl of the corresponding growth medium. After 24 hours, the cells of one plate (zero-point plate) were colored with crystal violet (see below), while the medium of the other plates was replaced by fresh culture medium (200 μl), to which the test substances were added at various concentrations (0 μm, as well as in the range of 0.01-30 μm; the final concentration of the solvent dimethyl sulfoxide was 0.5%). The cells were incubated for 4 days in the presence of test substances. The cell proliferation was determined by coloring the cells with crystal violet: the cells were fixed by adding 20 μl/measuring point of an 11% glutaric aldehyde solution for 15 minutes at room temperature. After three washing cycles of the fixed cells with water, the plates were dried at room temperature. The cells were colored by adding 100 μl/measuring point of a 0. 1% crystal violet solution (pH was set at 3 by adding acetic acid). After three washing cycles of the colored cells with water, the plates were dried at room temperature. The dye was dissolved by adding 100 μl/measuring point of a 10% acetic acid solution. The extinction was determined by photometry at a wavelength of 595 nm. The change of cell growth, in percent, was calculated by standardization of the measured values to the extinction values of the zero-point plate (=0%) and the extinction of the untreated (0 μm) cells (=100%).

T1 sequence (P53350 whole entry): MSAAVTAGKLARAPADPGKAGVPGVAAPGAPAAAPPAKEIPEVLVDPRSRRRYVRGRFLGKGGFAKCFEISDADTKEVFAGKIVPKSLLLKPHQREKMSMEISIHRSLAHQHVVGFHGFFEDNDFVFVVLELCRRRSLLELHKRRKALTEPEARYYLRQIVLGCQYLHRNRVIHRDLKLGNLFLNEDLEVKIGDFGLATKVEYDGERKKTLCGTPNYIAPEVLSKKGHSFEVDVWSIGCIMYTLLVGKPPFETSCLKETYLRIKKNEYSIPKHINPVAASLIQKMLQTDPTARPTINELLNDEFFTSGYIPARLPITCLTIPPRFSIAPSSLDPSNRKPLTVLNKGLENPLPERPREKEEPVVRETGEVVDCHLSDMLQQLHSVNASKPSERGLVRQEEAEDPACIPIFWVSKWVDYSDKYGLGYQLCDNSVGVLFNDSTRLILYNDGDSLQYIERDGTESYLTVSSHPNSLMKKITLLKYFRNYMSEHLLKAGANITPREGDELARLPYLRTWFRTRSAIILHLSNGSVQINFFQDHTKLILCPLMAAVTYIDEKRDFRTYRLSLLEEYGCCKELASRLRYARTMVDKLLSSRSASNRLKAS

`CCn1c(=C(C#N)C2=NCC(C)O2)sc(=CNc2cccc(NC(=O)C(C)(C)C)c2)c1=O` (mixture of isomers) [Example 15, N-(3-{[2-[1-Cyano-1-(5-methyl-4,5-dihydro-oxazol-2-yl)-meth-(E or Z)-ylidene]-3-ethyl-4-oxo-thiazolidin-(5-(E/Z))-ylidenemethyl]-amino}-phenyl)-2,2-dimethyl-propionamide]: at Recombinant human Plk-1, the IC50 came out at 55 nM. Moreover, in assay [1], the pIC50 is 5.68.

Regarding `CCNc1cc(NC=c2sc(=C(C#N)C3=N[C@H]4CCC[C@H]4O3)n(CC)c2=O)ccn1` (mixture of isomers) [Example 38, [3-Ethyl-5-[1-(2-ethylamino-pyridin-4-ylamino)-meth-(E/Z)-ylidene]-4-oxo-thiazolidin-(2-(E or Z))-ylidene]-(3aS,6aR)-4,5,6,6a-tetrahydro-3aH-cyclopentaoxazol-2-yl-acetonitrile], at Recombinant human Plk-1, the IC50 was 24 nM. In addition, the pIC50 in assay [1] was 5.92.

On to `CCn1c(=C(C#N)C2=N[C@H]3CCC[C@H]3O2)sc(=CNc2cccc(NC(=O)C(C)(C)O)c2)c1=O` (mixture of isomers) [Example 31, N-(3-{[2-[(3aS,6aR)-1-Cyano-1-4,5,6,6a-tetrahydro-3aH-cyclopentaoxazol-2-yl-meth-(E or Z)-ylidene]-3-ethyl-4-oxo-thiazolidin-(5-(E/Z))-ylidenemethyl]-amino}-phenyl)-2-hydroxy-2-methyl-propionamide], for which, at Recombinant human Plk-1, the IC50 worked out at 53 nM. Further, the pIC50 in assay [1] is 5.92.

Regarding `CCn1c(=C(C#N)C2=NC(C)(C)CO2)sc(=CNc2cccc(NC(=O)COCCOC)n2)c1=O` (mixture of isomers) [Example 37, N-(6-{[2-[1-Cyano-1-(4,4-dimethyl-4,5-dihydro-oxazol-2-yl)-meth-(E or Z)-ylidene]-3-ethyl-4-oxo-thiazolidin-(5-(E/Z))-ylidenemethyl]-amino}-pyridin-2-yl)-2-(2-methoxy-ethoxy)-acetamide], the IC50 at Recombinant human Plk-1 stood at 69 nM. Moreover, the pIC50 in assay [1] is 5.44.

With `CCn1c(=C(C#N)C2=N[C@@H](C)CO2)sc(=CNc2cccc(NC(=O)C(C)(C)C)c2)c1=O` [Example 20, N-(3-{[2-[1-Cyano-1-((S)-4-methyl-4,5-dihydro-oxazol-2-yl)-meth-(E or Z)-ylidene]-3-ethyl-4-oxo-thiazolidin-(5-(E/Z))-ylidenemethyl]-amino-phenyl)-2,2-dimethyl-propionamide], at Recombinant human Plk-1, the 50% inhibitory concentration (IC50) is 140 nM. Also, the pIC50 in assay [1] was 5.49.
